Reference: ChEMBL document CHEMBL3351286, “Strategies to inhibit tumor associated integrin receptors: rationale for dual and multi-antagonists” (J Med Chem, 2014)
Values belong to the compound of their own block, whether it stands above or below them.

What was measured:
[1] = target: Integrin alpha-IIb/beta-3 (Homo sapiens, UniProt P05106+P08514); assay: Antagonist activity at alpha2bbeta3 integrin receptor (unknown origin) by cell-free ELISA; format: protein-complex assay
Integrin alpha-V/beta-3 [2] = target: T1, Integrin alpha-V/beta-3 (Homo sapiens, UniProt P05106+P06756); assay: Antagonist activity at alphavbeta3 integrin receptor (unknown origin) by cell-free ELISA; format: protein-complex assay
Integrin alpha-5/beta-1 [3] = target: T2, Integrin alpha-5/beta-1 (Homo sapiens, UniProt P05556+P08648); assay: Antagonist activity at alpha5beta1 integrin receptor (unknown origin) by cell-free ELISA; format: protein-complex assay
Integrin alpha-5/beta-1 [4] = target: T2, Integrin alpha-5/beta-1; assay: Antagonist activity at alpha5beta1 integrin receptor (unknown origin) by cell-based ELISA
Integrin alpha-V/beta-3 [5] = target: T1, Integrin alpha-V/beta-3; assay: Antagonist activity at alphavbeta3 integrin receptor (unknown origin) by cell-based ELISA
Integrin alpha-V/beta-5 [6] = target: T3, Integrin alpha-V/beta-5 (Homo sapiens, UniProt P06756+P18084); assay: Antagonist activity at alphavbeta5 integrin receptor (unknown origin) by cell-based ELISA
Integrin alpha-V/beta-1 [7] = target: T4, Integrin alpha-V/beta-1 (Homo sapiens, UniProt P05556+P06756); assay: Antagonist activity at alphavbeta1 integrin receptor (unknown origin) by cell-based ELISA
Integrin alpha-V/beta-1 [8] = target: T4, Integrin alpha-V/beta-1; assay: Antagonist activity at alphavbeta1 integrin receptor in HEK293 cells after 4 hrs using p-nitrophenyl phosphate by colorimetry; format: cell-based
Integrin alpha-5/beta-1 [9] = target: T2, Integrin alpha-5/beta-1; assay: Antagonist activity at alpha5beta1 integrin receptor in K562 cells after 4 hrs using p-nitrophenyl phosphate by colorimetry; format: cell-based
[10] = target: Integrin alpha-V/beta-5 (Homo sapiens) [+]; assay: Antagonist activity at alphavbeta5 integrin receptor in HEK293 cells after 4 hrs using p-nitrophenyl phosphate by colorimetry
Integrin alpha-V/beta-8 = Integrin alpha-V/beta-8 (Homo sapiens, UniProt P06756+P26012); assay: Antagonist activity at human recombinant alphavbeta8 integrin receptor expressed in HEK293 cells after 4 hrs using p-nitrophenyl phosphate by colorimetry; format: cell-based
Integrin alpha-V/beta-6 = Integrin alpha-V/beta-6 (Homo sapiens, UniProt P06756+P18564); assay: Antagonist activity at alphavbeta6 integrin receptor in human HT29 cells after 4 hrs using p-nitrophenyl phosphate by colorimetry; format: cell-based, HT-29
Integrin alpha-V/beta-5 [11] = target: T3, Integrin alpha-V/beta-5; assay: Antagonist activity at alphavbeta5 integrin receptor (unknown origin) by cell-free ELISA; format: protein-complex assay
[12] = target: T5, Integrin alpha-IIb/beta-3 (Mus musculus, UniProt O54890+Q9QUM0); assay: Antagonist activity at mouse endothelial alpha2bbeta3 integrin receptor by cell adhesion assay; format: protein-complex assay
T5 sequence (Q9QUM0 whole entry): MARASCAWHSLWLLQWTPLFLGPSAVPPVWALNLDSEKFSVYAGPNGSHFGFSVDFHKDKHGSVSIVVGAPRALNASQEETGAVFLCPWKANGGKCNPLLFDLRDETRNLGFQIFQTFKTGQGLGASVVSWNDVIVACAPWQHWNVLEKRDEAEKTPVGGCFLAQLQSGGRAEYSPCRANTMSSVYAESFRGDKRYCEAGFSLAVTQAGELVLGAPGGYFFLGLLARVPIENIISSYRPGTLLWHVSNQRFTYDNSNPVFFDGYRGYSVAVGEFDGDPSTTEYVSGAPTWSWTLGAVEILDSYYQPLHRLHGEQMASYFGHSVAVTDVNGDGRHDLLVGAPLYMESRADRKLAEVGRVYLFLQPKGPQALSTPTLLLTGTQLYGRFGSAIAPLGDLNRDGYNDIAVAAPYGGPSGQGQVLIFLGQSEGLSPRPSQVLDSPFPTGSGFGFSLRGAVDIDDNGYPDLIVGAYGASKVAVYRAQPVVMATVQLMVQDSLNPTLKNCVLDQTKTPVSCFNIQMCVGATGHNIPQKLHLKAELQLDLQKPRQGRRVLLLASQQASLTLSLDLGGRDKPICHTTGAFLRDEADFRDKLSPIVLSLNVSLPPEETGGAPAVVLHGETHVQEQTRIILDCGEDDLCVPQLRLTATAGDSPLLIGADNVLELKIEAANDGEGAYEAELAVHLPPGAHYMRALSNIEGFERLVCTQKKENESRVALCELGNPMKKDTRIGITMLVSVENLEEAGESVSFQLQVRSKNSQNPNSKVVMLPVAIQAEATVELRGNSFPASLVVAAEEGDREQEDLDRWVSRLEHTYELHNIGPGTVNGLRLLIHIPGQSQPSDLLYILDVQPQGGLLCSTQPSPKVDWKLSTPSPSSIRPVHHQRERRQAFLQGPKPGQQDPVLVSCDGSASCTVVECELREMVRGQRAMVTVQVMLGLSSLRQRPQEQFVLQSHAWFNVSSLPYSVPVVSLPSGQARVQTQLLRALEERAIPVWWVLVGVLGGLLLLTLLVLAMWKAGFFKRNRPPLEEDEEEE
T5 sequence (O54890 whole entry): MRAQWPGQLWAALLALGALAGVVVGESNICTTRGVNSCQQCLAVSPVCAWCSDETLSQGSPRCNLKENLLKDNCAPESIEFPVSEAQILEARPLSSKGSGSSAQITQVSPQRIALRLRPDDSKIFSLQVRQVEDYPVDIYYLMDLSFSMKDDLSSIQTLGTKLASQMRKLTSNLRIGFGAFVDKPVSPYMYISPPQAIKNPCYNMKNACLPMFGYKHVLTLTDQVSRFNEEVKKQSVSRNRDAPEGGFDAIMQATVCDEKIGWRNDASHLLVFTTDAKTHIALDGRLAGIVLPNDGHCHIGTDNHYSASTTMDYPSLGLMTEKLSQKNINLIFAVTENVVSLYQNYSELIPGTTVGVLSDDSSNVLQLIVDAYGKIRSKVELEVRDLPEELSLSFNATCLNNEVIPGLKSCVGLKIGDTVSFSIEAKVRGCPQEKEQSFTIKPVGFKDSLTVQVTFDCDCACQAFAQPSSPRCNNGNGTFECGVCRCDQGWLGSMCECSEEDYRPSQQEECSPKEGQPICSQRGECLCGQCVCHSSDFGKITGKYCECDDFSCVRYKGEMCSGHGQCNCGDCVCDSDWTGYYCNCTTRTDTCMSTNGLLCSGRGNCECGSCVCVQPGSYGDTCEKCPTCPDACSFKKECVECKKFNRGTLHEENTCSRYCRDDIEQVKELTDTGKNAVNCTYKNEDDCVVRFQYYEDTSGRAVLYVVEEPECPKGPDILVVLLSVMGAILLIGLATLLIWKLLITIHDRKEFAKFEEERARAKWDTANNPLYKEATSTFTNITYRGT

Integrin alpha-V/beta-3 [13] = target: T6, Integrin alpha-V/beta-3 (Mus musculus, UniProt O54890+P43406); assay: Antagonist activity at mouse endothelial alphavbeta3 integrin receptor by cell adhesion assay; format: protein-complex assay
T6 sequence (O54890 whole entry): T5 sequence (O54890 whole entry)
T6 sequence (P43406 whole entry): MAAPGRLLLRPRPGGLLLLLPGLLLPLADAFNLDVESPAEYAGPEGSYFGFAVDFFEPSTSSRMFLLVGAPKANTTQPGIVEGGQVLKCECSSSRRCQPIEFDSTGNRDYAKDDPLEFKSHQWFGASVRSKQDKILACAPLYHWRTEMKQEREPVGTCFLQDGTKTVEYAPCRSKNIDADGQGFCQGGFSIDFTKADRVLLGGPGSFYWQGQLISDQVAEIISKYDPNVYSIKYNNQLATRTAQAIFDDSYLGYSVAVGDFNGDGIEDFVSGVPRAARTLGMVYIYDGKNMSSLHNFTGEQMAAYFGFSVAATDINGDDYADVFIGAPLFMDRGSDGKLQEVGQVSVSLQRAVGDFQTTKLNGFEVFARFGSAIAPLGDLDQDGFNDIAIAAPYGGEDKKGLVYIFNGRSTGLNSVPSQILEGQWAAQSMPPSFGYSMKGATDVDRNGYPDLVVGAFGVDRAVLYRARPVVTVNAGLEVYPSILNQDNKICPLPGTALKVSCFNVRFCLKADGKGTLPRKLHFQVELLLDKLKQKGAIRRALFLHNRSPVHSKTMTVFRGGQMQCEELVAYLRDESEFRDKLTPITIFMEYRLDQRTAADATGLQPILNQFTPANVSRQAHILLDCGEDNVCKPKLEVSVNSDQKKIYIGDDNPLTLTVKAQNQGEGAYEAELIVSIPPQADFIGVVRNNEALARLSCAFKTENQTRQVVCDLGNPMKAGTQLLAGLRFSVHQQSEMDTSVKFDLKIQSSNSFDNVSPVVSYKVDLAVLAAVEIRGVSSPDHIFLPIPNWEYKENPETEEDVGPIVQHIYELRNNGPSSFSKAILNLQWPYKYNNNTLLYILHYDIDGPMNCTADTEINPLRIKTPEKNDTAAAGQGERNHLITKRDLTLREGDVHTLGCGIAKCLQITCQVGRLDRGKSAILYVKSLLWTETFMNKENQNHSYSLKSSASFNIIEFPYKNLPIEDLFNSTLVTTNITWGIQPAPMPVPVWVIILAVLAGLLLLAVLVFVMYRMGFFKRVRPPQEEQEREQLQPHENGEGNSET

Integrin alpha-V/beta-3 [14] = target: T1, Integrin alpha-V/beta-3; assay: Antagonist activity at alphavbeta3 integrin receptor in HEK293 cells after 4 hrs using p-nitrophenyl phosphate by colorimetry; format: cell-based

T4 sequence (P05556 21-798 limits assumed): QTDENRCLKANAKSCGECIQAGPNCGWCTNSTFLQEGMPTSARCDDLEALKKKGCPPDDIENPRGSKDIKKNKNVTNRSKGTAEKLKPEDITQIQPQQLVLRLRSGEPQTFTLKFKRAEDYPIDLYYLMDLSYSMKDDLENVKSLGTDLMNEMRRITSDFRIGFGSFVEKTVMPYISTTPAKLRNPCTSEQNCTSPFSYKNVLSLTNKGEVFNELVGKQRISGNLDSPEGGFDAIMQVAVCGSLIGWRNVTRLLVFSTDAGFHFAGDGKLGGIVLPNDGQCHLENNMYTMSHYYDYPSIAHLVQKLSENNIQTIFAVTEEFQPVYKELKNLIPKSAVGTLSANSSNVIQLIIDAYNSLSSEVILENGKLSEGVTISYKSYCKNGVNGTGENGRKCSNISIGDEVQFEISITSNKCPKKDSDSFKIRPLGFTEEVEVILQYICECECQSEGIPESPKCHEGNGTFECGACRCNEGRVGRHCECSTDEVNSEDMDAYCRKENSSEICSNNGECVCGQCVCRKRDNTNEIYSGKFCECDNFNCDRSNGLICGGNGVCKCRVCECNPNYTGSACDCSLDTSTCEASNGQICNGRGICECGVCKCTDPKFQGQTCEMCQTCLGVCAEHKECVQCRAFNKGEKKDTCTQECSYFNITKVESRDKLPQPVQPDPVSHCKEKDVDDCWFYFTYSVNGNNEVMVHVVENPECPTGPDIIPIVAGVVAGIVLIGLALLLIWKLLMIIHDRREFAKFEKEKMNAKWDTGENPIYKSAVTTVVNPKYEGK
T4 sequence (P06756 31-889 limits assumed): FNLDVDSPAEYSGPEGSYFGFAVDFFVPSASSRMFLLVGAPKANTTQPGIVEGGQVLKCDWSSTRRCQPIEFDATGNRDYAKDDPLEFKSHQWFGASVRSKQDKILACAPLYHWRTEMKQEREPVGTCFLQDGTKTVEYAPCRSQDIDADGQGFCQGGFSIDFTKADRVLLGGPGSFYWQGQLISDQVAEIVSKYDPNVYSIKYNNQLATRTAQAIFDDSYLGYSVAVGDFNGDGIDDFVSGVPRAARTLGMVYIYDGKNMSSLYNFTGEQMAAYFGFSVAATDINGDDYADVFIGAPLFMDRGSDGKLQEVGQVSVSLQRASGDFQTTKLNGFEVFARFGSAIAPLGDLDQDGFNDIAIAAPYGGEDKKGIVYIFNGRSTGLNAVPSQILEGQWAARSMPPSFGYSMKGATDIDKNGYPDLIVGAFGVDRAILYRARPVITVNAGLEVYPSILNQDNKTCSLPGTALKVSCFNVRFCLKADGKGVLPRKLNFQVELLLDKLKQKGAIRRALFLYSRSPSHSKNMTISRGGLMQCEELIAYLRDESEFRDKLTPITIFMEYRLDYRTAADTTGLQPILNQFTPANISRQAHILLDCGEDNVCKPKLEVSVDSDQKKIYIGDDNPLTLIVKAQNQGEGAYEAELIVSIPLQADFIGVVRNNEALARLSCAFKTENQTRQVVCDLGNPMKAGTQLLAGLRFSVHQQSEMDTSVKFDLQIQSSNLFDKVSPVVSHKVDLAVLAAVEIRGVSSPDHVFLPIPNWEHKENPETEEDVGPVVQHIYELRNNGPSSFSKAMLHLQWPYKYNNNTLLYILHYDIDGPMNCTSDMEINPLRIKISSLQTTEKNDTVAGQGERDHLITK
T4 sequence (P06756 891-1048 limits assumed): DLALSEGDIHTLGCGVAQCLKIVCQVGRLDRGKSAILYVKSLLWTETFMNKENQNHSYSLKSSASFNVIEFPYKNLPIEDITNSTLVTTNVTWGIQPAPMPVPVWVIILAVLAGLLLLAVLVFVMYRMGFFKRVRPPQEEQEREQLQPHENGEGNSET
T2 sequence (P05556 21-798 limits assumed): as the sequence (P05556 21-798 limits assumed) above
T2 sequence (P08648 42-894 limits assumed): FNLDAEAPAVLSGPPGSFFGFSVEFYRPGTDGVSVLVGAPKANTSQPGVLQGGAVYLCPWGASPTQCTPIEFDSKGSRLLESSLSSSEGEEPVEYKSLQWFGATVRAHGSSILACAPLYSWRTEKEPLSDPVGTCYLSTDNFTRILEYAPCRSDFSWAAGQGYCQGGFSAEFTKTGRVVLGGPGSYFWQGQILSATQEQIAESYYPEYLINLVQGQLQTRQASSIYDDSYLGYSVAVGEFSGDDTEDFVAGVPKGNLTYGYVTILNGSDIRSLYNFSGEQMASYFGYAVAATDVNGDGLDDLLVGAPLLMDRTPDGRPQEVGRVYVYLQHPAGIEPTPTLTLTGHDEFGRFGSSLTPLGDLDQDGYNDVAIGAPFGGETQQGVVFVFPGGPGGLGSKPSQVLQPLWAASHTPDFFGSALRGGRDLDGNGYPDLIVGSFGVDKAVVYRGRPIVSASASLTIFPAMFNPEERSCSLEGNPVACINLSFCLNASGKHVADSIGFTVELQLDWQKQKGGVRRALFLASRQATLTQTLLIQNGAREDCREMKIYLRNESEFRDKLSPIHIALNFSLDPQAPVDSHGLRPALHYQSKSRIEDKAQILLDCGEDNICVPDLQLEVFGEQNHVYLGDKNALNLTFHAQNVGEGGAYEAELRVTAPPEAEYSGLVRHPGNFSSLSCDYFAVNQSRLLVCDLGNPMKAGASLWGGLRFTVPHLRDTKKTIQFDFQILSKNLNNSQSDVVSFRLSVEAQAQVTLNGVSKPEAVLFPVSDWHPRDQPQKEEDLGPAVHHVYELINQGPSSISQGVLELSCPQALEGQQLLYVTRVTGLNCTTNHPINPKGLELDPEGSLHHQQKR
T2 sequence (P08648 895-1049 limits assumed): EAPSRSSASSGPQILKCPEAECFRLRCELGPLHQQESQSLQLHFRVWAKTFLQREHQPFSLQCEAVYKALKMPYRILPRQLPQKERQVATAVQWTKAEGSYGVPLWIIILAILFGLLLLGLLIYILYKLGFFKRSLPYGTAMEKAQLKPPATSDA
T1 sequence (P05106 27-788 limits assumed): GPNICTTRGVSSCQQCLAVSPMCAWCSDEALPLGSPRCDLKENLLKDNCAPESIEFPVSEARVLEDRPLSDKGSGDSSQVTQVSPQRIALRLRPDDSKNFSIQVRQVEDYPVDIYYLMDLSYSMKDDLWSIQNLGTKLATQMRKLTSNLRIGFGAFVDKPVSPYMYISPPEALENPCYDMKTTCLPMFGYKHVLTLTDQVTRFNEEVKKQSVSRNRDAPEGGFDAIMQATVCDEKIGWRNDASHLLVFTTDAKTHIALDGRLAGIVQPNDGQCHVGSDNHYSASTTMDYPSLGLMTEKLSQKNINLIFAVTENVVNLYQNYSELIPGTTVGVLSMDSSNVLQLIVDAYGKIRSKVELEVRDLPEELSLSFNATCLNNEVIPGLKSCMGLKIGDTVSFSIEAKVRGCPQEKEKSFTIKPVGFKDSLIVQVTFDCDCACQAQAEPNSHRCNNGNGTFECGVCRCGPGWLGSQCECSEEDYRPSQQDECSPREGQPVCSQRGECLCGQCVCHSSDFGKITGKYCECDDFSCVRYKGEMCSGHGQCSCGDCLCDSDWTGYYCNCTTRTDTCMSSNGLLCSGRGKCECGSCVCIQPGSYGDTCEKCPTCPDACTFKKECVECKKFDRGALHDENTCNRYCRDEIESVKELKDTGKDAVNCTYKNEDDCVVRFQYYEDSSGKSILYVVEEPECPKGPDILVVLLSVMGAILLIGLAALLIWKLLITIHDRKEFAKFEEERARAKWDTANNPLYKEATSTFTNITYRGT
T1 sequence (P06756 31-889 limits assumed): as the sequence (P06756 31-889 limits assumed) above
T1 sequence (P06756 891-1048 limits assumed): as the sequence (P06756 891-1048 limits assumed) above
Integrin alpha-IIb/beta-3 (Homo sapiens, UniProt P05106+P08514), sequence (P05106 27-788 limits assumed): as the sequence (P05106 27-788 limits assumed) above
Integrin alpha-IIb/beta-3 (Homo sapiens, UniProt P05106+P08514), sequence (P08514 32-887 limits assumed): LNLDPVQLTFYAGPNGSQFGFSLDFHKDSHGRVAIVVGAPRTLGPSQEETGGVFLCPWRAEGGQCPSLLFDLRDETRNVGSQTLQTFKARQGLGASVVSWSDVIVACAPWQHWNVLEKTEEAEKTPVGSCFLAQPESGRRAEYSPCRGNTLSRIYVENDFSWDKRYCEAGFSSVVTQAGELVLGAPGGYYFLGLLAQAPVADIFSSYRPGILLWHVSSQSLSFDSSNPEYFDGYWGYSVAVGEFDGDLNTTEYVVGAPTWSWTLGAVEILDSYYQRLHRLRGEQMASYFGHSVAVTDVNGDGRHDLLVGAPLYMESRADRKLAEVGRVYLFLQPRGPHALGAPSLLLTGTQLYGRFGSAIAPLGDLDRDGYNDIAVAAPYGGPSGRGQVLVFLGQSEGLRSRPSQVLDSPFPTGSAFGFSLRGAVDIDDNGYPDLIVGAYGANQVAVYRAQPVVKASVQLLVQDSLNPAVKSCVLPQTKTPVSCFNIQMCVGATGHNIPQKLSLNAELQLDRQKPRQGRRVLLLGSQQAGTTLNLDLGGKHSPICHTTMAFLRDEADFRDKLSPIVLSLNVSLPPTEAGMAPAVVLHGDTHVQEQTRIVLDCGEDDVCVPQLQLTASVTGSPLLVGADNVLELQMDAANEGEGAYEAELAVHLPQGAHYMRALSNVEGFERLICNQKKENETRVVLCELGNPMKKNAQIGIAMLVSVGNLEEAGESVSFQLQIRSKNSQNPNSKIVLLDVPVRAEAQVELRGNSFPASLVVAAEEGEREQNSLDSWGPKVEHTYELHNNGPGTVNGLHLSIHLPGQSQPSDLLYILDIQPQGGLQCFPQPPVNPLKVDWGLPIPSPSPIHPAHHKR
Integrin alpha-IIb/beta-3 (Homo sapiens, UniProt P05106+P08514), sequence (P08514 891-1039 limits assumed): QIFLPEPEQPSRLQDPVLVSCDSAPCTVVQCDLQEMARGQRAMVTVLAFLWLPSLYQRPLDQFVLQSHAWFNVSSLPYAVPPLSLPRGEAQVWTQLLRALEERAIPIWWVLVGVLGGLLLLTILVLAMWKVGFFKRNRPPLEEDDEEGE

IC50 [1]: 67 nM | IC50 (Integrin alpha-V/beta-3 [2]): 52 nM
SMILES: N=C(N)NCCC[C@H](NC(=O)OCc1ccccc1)[C@H]1CC[C@H](C(=O)NC[C@H](NC(=O)OCc2ccccc2)C(=O)O)O1

IC50 (Integrin alpha-V/beta-3 [2]): 87 nM | IC50 (Integrin alpha-5/beta-1 [3]): 0.39 nM
SMILES: C=Cc1cnc(NC[C@@H]2C[C@]3(CC(C(=O)NC[C@H](NS(=O)(=O)c4c(C)cc(C)cc4C)C(=O)O)=NO3)CN2C(=O)OCCCC)[nH]1

IC50 (Integrin alpha-5/beta-1 [4]): 70000 nM | IC50 (Integrin alpha-V/beta-3 [5]): 120 nM | IC50 (Integrin alpha-V/beta-5 [6]): 23 nM | IC50 [1]: 9 nM | IC50 (Integrin alpha-V/beta-3 [2]): 10 nM | IC50 (Integrin alpha-V/beta-1 [7]): 317 nM
SMILES: N=C(N)NCCCCC(=O)NCC(=O)NC(CC(=O)O)c1cccnc1 (stereo unspecified)

IC50 (Integrin alpha-V/beta-3 [5]): 0.033 nM | IC50 [1]: 0.3 nM
SMILES: N=C(N)NCc1cccc(-c2ccc(C(=O)NC[C@H](NS(=O)(=O)c3ccccc3)C(=O)O)s2)c1

IC50 (Integrin alpha-5/beta-1 [4]): 20 nM | IC50 (Integrin alpha-V/beta-3 [5]): 3.5 nM | IC50 (Integrin alpha-V/beta-5 [6]): 60 nM | IC50 [1]: 0.2 nM
SMILES: Cc1cc(C)c(S(=O)(=O)N[C@@H](CNC(=O)c2ccc(-c3cccc(CN=C(N)N)c3)s2)C(=O)O)c(C)c1

IC50 (Integrin alpha-V/beta-1 [8]): 1.59 nM | IC50 [1]: 380 nM | IC50 (Integrin alpha-5/beta-1 [9]): 64 nM | IC50 [10]: 1.5 nM | IC50 (Integrin alpha-V/beta-8): 0.65 nM | IC50 (Integrin alpha-V/beta-6): 1.13 nM
SMILES: O=C(O)C[C@H](NC(=O)CNC(=O)c1cncc(N=C2NCC(O)CN2)c1)c1cc(Cl)cc(Br)c1O (stereo partly specified)

IC50 [1]: 1.5 nM
SMILES: N=C(N)NCCC[C@@H]1NC(=O)CNC(=O)[C@H](CC(=O)O)N[C@H](C(=O)O)C[S+]([O-])CC(=O)N[C@H](Cc2ccc(O)cc2)C1=O (stereo partly specified)

IC50 (Integrin alpha-V/beta-5 [11]): 1.02 nM | IC50 (Integrin alpha-V/beta-3 [2]): 1.35 nM
SMILES: N=C(N)NCCCc1cn(CC(=O)N[C@@H](CC(=O)O)c2ccccc2)nn1

IC50 (Integrin alpha-V/beta-5 [11]): 1 nM | IC50 (Integrin alpha-V/beta-3 [2]): 2 nM
SMILES: O=C(O)CC1CC(CNC(=O)CCCNc2ccccn2)=CCc2ccccc21 (stereo unspecified)

IC50 (Integrin alpha-V/beta-5 [11]): 1.7 nM | IC50 (Integrin alpha-V/beta-3 [2]): 3.2 nM | IC50 (Integrin alpha-5/beta-1 [3]): 421 nM
SMILES: O=C(N[C@@H](CNC(=O)c1ccc(CN(Cc2nc3ccccc3[nH]2)C(=O)NC2CCCCC2)cc1)C(=O)O)OCc1ccccc1

IC50 [12]: 12 nM | IC50 (Integrin alpha-V/beta-3 [13]): 8.5 nM
SMILES: O=C(NC[C@H](NS(=O)(=O)c1c(Cl)cccc1Cl)C(=O)O)c1ccc2c(cnn2CCCNc2ncc[nH]2)c1

IC50 [12]: 21 nM | IC50 (Integrin alpha-V/beta-3 [13]): 2.3 nM
SMILES: Cc1cc(C)c(S(=O)(=O)N[C@@H](CNC(=O)c2ccc3c(cnn3CCCNc3ncc[nH]3)c2)C(=O)O)c(C)c1

IC50 (Integrin alpha-V/beta-1 [8]): 10.4 nM | IC50 [1]: 257 nM | IC50 (Integrin alpha-5/beta-1 [9]): 316 nM | IC50 [10]: 18.1 nM | IC50 (Integrin alpha-V/beta-8): 1.71 nM | IC50 (Integrin alpha-V/beta-3 [14]): 1.6 nM | IC50 (Integrin alpha-V/beta-6): 11.7 nM
SMILES: O=C(O)C[C@H](NC(=O)CNC(=O)c1cc(O)cc(NC2=NCC(O)CN2)c1)c1cc(Cl)cc(Br)c1O (stereo partly specified)
